Literature values, collected in US20230265432A1, “METHODS AND COMPOSITIONS FOR TREATING ACUTE MYELOID LEUKEMIA” (Sanford Burnham Prebys Medical Discovery Institute, priority 2021, published 2023).
Structures can show the parent of a compound that is named as a salt.

Columns and labels:
[1] = biological target: SIRT5 (Homo sapiens, UniProt Q9NXA8); conditions: cited from earlier work
[2] = tested on: p53K370 monomethylation in cells; conditions: cited from earlier work
[3] = biological target: REV-ERBa (Homo sapiens, UniProt P20393); conditions: agonist; cited from earlier work
[4] = biological target: JMJD2B (Homo sapiens, UniProt O94953); conditions: cited from earlier work
[5] = biological target: JMJD2A (Homo sapiens, UniProt O75164); conditions: cited from earlier work
[6] = biological target: DNA methyltransferase; conditions: cited from earlier work
[7] = biological target: yeast Hmt1p (Saccharomyces cerevisiae, UniProt P38074); conditions: cited from earlier work
[8] = biological target: T1, HIV-1 reverse transcriptase (Human immunodeficiency virus type 1 group M subtype B, UniProt P04585); conditions: cited from earlier work
T1 construct: HIV-1 reverse transcriptase

[9] = tested on: various cancer cell lines; conditions: proliferation; cited from earlier work
[10] = biological target: SMYD2 (Homo sapiens, UniProt Q9NRG4); conditions: cited from earlier work
[11] = biological target: SIRT3 (Homo sapiens, UniProt Q9NTG7); conditions: cited from earlier work
[12] = biological target: SIRT2 (Homo sapiens, UniProt Q8IXJ6); conditions: cited from earlier work
[13] = biological target: EGFR (Homo sapiens, UniProt P00533); conditions: cited from earlier work
[14] = tested on: trimethylation of the PRC2 target H3K27; conditions: cited from earlier work
[15] = tested on: HDAC activity in HeLa cell nuclear lysates; conditions: cited from earlier work
[16] = biological target: CBP (Homo sapiens, UniProt Q92793); conditions: cited from earlier work
[17] = tested on: neuroblastoma tumor; conditions: 200 mg/kg; cited from earlier work
[18] = biological target: EZH2 (Homo sapiens, UniProt Q15910); conditions: cited from earlier work
[19] = tested on: trimethylation of H3K27 in HCC1806 cells; conditions: cited from earlier work
[20] = biological target: MOF (Homo sapiens, UniProt Q9H7Z6); conditions: cited from earlier work
[21] = tested on: H3K9 dimethylation in MDA-MB231 cells; conditions: cited from earlier work
[22] = biological target: G9a and GLP methyltransferases; conditions: competitive with H3K9 substrates; cited from earlier work
[23] = tested on: H3K9 dimethylation levels in PANC-1 cells; conditions: cited from earlier work
[24] = tested on: phosphorylation of histone 2A at Thr120 in DU-145 human prostate cancer cells; conditions: cited from earlier work
[25] = biological target: T2, STAT3 (Homo sapiens, UniProt P40763); conditions: in HEL cells; cited from earlier work
T2 construct: endogenous in cells; host or cells: HEL cells

[26] = biological target: T3, JAK2 (Homo sapiens, UniProt O60674, V617F); conditions: in HEL cells; cited from earlier work
T3 construct: endogenous in cells; host or cells: HEL cells

[27] = biological target: UTX (Homo sapiens, UniProt O15550); conditions: as measured by mass spectrometry; cited from earlier work
[28] = biological target: EZH2 (Y641F) (Homo sapiens, UniProt Q15910, Y641F); conditions: cited from earlier work
[29] = tested on: PARP; conditions: cited from earlier work
[30] = biological target: BRD3 (Homo sapiens, UniProt Q15059); conditions: cited from earlier work
[31] = biological target: BRD2 (Homo sapiens, UniProt P25440); conditions: cited from earlier work
[32] = biological target: HDAC8 (Homo sapiens, UniProt Q9BY41); conditions: cited from earlier work
[33] = biological target: jumonji histone demethylase (JMJD2); conditions: cited from earlier work
[34] = biological target: GLP (Homo sapiens, UniProt Q9H9B1); conditions: cited from earlier work
[35] = tested on: H3K27methylation in MCF10A cells; conditions: cited from earlier work
[36] = tested on: histone methylation in cells; conditions: cited from earlier work
[37] = tested on: HuT-78 cells; conditions: cited from earlier work
[38] = biological target: HDAC4 (Homo sapiens, UniProt P56524); conditions: cited from earlier work
[39] = biological target: HDAC2 (Homo sapiens, UniProt Q92769); conditions: cited from earlier work
[40] = tested on: HCT116; conditions: cited from earlier work
[41] = biological target: T4, HDAC6 (Homo sapiens, UniProt Q9UBN7); conditions: cited from earlier work
T4 sequence (Q9UBN7 1-1215): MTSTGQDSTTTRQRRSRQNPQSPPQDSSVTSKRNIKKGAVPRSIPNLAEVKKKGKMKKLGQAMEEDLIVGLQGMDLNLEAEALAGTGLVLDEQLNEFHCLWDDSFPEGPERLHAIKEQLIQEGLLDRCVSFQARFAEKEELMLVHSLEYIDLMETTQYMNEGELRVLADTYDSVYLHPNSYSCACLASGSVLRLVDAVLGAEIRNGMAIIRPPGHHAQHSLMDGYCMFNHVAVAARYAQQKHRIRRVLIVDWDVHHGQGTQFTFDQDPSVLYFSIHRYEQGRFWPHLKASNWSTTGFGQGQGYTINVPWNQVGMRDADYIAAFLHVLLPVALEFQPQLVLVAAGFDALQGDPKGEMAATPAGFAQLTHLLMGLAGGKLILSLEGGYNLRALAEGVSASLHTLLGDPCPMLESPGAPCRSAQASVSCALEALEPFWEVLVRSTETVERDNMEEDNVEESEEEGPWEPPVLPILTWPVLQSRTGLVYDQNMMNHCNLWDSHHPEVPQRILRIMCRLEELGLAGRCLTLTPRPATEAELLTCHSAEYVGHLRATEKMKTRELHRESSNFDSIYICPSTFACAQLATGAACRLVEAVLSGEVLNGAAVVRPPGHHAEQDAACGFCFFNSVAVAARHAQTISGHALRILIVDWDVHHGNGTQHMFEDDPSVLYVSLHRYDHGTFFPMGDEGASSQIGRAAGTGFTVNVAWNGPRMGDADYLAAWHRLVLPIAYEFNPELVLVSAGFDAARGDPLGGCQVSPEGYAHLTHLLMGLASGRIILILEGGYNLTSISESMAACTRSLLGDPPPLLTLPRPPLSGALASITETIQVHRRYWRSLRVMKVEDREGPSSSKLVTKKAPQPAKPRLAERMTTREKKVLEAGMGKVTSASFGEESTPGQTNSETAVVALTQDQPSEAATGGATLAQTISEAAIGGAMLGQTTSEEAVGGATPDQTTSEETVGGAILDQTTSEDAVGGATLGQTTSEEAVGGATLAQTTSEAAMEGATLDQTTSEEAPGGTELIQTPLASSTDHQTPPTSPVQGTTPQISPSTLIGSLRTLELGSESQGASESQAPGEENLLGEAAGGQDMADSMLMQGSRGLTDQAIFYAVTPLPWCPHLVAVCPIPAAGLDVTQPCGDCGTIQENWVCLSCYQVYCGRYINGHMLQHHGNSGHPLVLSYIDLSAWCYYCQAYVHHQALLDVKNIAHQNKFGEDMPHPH

[42] = tested on: human dermal fibroblasts; conditions: cited from earlier work
[43] = biological target: WDR5 (Homo sapiens, UniProt P61964); conditions: cited from earlier work
[44] = biological target: MLL core complex (Homo sapiens, UniProt P61964); conditions: in vitro; cited from earlier work
[45] = biological target: EZH1 (Homo sapiens, UniProt Q92800); conditions: cited from earlier work
[46] = tested on: EZH2 mutant DLBCL cell lines; conditions: proliferation; cited from earlier work

Chain of EZH2 (Q15910 whole entry, species assumed): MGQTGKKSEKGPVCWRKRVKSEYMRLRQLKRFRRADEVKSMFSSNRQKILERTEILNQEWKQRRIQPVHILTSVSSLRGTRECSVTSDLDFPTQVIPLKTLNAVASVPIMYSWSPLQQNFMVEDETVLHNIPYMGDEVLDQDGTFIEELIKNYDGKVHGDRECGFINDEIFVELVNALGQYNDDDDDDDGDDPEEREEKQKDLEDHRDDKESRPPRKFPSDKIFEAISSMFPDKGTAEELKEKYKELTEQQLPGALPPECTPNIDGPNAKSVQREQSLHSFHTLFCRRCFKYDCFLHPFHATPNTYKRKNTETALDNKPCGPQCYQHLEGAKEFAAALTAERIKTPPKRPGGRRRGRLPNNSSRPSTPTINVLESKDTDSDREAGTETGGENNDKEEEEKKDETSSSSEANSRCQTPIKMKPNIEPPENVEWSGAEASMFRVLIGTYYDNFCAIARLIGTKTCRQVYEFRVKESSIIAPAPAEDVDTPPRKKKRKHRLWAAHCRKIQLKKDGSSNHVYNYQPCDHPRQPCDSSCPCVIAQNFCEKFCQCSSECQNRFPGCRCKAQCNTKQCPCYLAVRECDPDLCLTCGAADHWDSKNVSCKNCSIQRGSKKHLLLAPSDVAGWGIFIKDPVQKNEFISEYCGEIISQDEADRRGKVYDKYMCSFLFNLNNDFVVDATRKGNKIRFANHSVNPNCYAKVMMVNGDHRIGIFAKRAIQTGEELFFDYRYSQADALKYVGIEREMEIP
Chain of EZH1 (Q92800 whole entry, species assumed): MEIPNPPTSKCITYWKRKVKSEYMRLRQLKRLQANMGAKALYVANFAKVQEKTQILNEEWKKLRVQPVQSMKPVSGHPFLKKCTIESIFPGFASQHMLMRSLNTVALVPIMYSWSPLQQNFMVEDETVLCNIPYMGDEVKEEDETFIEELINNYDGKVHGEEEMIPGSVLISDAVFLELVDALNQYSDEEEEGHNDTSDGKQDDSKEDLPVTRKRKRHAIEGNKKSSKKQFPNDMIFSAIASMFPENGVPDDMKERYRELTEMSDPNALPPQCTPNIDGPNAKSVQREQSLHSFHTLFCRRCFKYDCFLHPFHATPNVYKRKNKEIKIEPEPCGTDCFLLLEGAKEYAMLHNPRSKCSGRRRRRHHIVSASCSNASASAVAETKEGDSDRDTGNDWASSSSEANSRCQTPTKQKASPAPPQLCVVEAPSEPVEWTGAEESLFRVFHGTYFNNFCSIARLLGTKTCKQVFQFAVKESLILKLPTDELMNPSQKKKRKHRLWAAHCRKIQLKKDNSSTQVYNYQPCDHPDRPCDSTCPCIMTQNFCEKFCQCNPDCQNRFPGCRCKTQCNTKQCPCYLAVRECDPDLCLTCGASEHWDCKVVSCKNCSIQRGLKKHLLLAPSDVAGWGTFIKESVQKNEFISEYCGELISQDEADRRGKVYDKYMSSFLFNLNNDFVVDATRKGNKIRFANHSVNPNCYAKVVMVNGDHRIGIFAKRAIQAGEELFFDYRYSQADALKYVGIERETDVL
Chain of EZH1 (O75530 whole entry partner, species assumed): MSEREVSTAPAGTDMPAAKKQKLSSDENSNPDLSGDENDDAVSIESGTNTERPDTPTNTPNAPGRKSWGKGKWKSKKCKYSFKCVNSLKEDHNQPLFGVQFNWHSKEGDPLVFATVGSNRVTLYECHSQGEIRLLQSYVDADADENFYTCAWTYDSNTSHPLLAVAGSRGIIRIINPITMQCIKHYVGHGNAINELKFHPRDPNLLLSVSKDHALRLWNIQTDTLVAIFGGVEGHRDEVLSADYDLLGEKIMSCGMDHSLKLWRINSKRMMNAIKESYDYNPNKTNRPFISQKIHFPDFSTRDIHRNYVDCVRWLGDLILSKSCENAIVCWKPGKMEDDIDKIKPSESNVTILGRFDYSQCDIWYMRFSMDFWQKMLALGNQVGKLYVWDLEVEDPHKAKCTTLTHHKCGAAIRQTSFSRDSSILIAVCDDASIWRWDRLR
Chain of EZH1 (Q15022 whole entry partner, species assumed): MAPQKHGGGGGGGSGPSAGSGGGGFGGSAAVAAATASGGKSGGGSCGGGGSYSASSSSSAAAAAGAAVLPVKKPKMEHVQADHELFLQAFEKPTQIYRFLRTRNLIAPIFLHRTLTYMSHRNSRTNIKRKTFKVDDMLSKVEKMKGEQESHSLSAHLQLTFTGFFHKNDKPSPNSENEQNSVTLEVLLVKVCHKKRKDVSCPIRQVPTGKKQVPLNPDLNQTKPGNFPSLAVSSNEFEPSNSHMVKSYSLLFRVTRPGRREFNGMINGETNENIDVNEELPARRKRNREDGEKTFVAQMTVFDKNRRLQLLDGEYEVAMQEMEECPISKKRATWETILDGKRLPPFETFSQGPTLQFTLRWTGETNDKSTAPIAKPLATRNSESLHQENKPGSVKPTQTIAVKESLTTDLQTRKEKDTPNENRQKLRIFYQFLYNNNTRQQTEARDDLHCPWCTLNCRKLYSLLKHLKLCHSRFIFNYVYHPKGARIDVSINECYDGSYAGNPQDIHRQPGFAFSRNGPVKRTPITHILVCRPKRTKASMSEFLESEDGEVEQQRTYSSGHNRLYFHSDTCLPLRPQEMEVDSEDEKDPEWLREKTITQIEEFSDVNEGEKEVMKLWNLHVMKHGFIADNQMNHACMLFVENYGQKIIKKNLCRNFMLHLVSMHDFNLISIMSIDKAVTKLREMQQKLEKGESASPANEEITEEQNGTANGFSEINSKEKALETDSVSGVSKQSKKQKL
Chain of EZH1 (Q09028 whole entry partner, species assumed): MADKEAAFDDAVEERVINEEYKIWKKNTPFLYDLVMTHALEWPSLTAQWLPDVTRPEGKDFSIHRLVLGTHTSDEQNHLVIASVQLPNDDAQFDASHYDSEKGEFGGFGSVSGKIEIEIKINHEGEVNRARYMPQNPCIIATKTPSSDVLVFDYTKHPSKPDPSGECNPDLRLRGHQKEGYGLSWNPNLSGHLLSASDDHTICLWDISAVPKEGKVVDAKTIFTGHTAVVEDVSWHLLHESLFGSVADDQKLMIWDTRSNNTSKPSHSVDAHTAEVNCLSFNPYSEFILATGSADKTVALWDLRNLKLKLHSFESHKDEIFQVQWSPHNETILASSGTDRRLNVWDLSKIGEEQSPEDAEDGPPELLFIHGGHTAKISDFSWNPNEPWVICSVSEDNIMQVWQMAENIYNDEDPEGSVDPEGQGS
Chain of JMJD2B (O94953 whole entry, species assumed): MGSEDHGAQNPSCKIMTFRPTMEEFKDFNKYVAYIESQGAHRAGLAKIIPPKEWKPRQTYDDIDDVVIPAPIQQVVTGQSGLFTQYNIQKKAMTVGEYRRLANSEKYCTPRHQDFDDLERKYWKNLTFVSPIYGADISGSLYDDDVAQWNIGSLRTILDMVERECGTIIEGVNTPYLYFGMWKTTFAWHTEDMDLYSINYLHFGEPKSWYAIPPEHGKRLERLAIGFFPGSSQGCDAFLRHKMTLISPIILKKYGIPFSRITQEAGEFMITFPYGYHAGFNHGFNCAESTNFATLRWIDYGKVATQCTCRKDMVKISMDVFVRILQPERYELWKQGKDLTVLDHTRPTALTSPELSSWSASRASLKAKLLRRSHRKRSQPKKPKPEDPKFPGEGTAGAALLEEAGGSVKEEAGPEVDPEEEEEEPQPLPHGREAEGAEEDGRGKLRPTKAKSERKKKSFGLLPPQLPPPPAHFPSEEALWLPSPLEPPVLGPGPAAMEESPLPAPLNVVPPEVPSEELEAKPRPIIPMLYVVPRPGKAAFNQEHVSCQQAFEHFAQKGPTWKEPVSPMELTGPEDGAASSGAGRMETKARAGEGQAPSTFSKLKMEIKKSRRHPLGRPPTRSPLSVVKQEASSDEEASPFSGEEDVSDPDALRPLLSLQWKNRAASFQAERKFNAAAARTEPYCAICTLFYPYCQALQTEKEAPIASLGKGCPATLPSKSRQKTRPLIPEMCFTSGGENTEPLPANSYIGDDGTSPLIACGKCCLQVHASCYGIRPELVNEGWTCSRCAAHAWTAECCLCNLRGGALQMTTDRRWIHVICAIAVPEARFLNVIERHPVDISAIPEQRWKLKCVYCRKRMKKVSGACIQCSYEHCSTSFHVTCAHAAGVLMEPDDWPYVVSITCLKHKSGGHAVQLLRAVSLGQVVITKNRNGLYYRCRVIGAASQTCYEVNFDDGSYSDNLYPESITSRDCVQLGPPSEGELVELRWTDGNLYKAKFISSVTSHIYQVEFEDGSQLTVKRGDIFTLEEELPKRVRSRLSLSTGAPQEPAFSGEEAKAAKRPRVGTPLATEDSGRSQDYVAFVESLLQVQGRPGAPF
T2 sequence (P40763 whole entry): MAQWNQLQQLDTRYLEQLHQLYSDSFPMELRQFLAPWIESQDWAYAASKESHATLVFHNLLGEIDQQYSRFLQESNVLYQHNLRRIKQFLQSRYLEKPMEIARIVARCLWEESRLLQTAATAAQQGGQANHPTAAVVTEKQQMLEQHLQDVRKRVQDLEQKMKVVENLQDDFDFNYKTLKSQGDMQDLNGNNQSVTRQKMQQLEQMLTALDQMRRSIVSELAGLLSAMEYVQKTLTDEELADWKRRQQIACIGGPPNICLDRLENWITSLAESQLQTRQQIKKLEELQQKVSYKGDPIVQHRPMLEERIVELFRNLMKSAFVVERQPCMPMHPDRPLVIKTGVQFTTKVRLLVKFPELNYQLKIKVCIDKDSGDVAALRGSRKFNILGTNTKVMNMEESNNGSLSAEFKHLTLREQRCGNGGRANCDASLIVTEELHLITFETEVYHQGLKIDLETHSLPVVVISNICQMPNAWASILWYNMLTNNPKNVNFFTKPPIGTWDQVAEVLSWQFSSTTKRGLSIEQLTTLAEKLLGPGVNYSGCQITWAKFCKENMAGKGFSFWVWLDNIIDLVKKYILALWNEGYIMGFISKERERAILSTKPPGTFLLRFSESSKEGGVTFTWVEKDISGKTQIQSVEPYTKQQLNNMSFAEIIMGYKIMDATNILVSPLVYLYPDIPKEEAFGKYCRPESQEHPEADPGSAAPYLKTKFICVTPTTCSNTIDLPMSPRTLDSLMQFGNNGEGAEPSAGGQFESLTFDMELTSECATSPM

O=c1[nH]c(=S)[nH]c(-c2ccccc2)c1Cc1c(O)ccc2ccccc12 [SIRT1/2 Inhibitor IV]
IC50 [1]: > 300000 nM

Cc1cn(CCN2CCN(c3ccccc3-c3cc(C#N)cc(C(=O)NCCCN4CCCC4)c3)CC2)c2ccccc12 [LLY-507]
IC50 [2]: ~600 nM

CC(C)(C)OC(=O)CN(Cc1ccc(Cl)cc1)Cc1ccc([N+](=O)[O-])s1 [GSK4112]
EC50 [3]: 400 nM

Clc1ccc(N/N=C(\c2ccccc2)c2ccccn2)nc1 [JIB-04]
IC50 [4]: 435 nM | IC50 [5]: 445 nM

O=C(O)C(Cc1c[nH]c2ccccc12)N1C(=O)c2ccccc2C1=O (centres unmarked) [RG108]
IC50 [6]: 115 nM

O=C(Nc1ccc2c(O)cc(S(=O)(=O)O)cc2c1)Nc1ccc2c(O)cc(S(=O)(=O)O)cc2c1 [AMI-1 (sodium salt)]
IC50 [7]: 3000 nM | IC50 [8]: 5000 nM

c1ccc([C@@H]2C[C@H]2NC2CCNCC2)cc1 [GSK-LSD1 (hydrochloride)]
EC50 [9]: < 5 nM

O=C1COc2c(CCNCCN(C(=O)CCNCCc3ccc(Cl)c(Cl)c3)C3CCCCC3)ccc(O)c2N1 [AZ 505]
IC50 [10]: 120 nM

N#C/C(=C\c1ccc(-c2cc(Cl)ccc2Cl)o1)C(=O)Nc1cccc2cccnc12 [AGK7]
IC50 [11]: > 5000 nM | IC50 [12]: > 50000 nM

AG-490 (Tyrphostin B42)
fold more selective for EGFR versus ErbB2 [13]: 135 fold

Cc1cc(C)c(CNC(=O)c2cc(-c3ccc(CN4CCOCC4)cc3)cc3c2cnn3C2CCCC2)c(=O)[nH]1 [EPZ005687]
IC50 [14]: 80 nM

C#CCCCC(=O)Nc1ccc(C(=O)c2ccc(NC(=O)CCCCCCC(=O)NO)cc2)cc1 [SAHA-BPyne]
IC50 [15]: ~3000 nM

CCC(=O)N1CCOc2c(cc(-c3ccc(OC)c(OC)c3)cc2OC[C@H]2CCCN(C)C2)C1 [I-CBP112 (hydrochloride)]
Kd [16]: 142 nM

O=C(/C=C/c1cccc(C(=O)NO)c1)NO [CBHA]
neuroblastoma tumor growth [17]: completely suppresses neuroblastoma tumor growth in SCID

CCCc1cc(C)[nH]c(=O)c1CNC(=O)c1cc(-c2ccnc(N3CCN(C)CC3)c2)cc2c1cnn2C(C)C [GSK343]
IC50 [18]: 4 nM | IC50 [19]: 174 nM

CCCCCCCc1ccc(CCc2cccc(O)c2C(=O)O)cc1 [MG149]
IC50 [20]: 47000 nM

COc1cc2c(NC3CCN(C(C)C)CC3)nc(N3CCC(F)(F)CC3)nc2cc1OCCCN1CCCC1 [UNC0642]
IC50 [21]: 110 nM | Ki [22]: 3.7 nM | IC50 [23]: 40 nM

C(=N\Nc1ncnc2sc3c(c12)CCCC3)/c1c[nH]c2ccccc12 [B32B3]
IC50 [24]: 500 nM

C[C@H](NC(=O)/C(C#N)=C/c1cccc(Br)n1)c1ccccc1 [WP1066]
IC50 [25]: 2430 nM | IC50 [26]: 2300 nM

O=C(O)CCNc1cc(N2CCc3ccccc3CC2)nc(-c2ccccn2)n1 [GSK-J1 (sodium salt)]
IC50 [27]: 56000 nM

CCC(CC)n1ccc2c(C(=O)NCc3c(C)cc(C)[nH]c3=O)cc(C#N)cc21 [EI1]
IC50 [18]: 15 nM | IC50 [28]: 13 nM

CN(C)CC(=O)Nc1ccc2[nH]c(=O)c3ccccc3c2c1 [PJ34]
EC50 [29]: 20 nM

CC(=O)N1c2ccc(-c3ccc(C(=O)O)cc3)cc2[C@H](Nc2ccc(Cl)cc2)C[C@@H]1C [GSK1324726A (I-BET726)]
IC50 [30]: 31 nM | IC50 [31]: 41 nM

Cc1cc(Cl)ccc1OCCCC(=O)NO [Droxinostat]
IC50 [32]: 1460 nM

CN(C)CCCNC(=O)c1ccc(-c2cc(O)c3ncccc3c2)cc1 [ML324]
IC50 [33]: 920 nM

COc1cc2c(NC3CCN(C4CCCCC4)CC3)nc(N3CCCN(C(C)C)CC3)nc2cc1OCCCN1CCCCC1 [UNC0646]
IC50 [21]: 26 nM | IC50 [34]: 15 nM

CCCc1cc(C)[nH]c(=O)c1CNC(=O)c1cc(-c2ccc(N3CCN(C(C)C)CC3)nc2)cc2c1cnn2C(C)C [UNC1999]
IC50 [18]: 2 nM | IC50 [35]: 124 nM

O=C(NCC(=O)N1CCCC1)Nc1ccc2cnccc2c1 [SGC707]
IC50 [36]: < 1000 nM

CCOC(=O)NCCCC(=O)NCCc1ccccc1 [CAY10683]
GI50 [37]: 1400 nM | IC50 [38]: > 1000 nM | IC50 [39]: 0.119 nM | GI50 [40]: 29400 nM | IC50 [41]: 434 nM | GI50 [42]: > 100000 nM

COC(=O)c1ccc(N2CCN(C)CC2)c(NC(=O)c2cccc(OC)c2)c1 [WDR5-0103]
Kd [43]: 450 nM | IC50 [44]: 39000 nM

CC[C@H](C)n1cc(C)c2c(C(=O)NCc3c(C)cc(C)[nH]c3=O)cc(-c3ccc(N4CCNCC4)nc3)cc21 [GSK 126]
IC50 [45]: 680 nM | Ki [45]: 89 nM | IC50 [46]: 28 to 61 nM
